{"source": "ChEMBL document CHEMBL4346729", "about": "“The discovery of novel 3-aryl-indazole derivatives as peripherally restricted pan-Trk inhibitors for the treatment of pain” (Bioorg Med Chem Lett, 2019)", "key": {"[1]": {"assay": "Apparent permeability from apical to basolateral side in MDCK cells at 50 umol/L at pH 7.4 incubated for 30 mins by LC-MS/MS analysis", "assay_type": "ADME, cell-based, Canis lupus familiaris", "conditions": "dog"}, "[2]": {"assay": "Cmax in Sprague-Dawley rat at 5 mg/kg, po", "assay_type": "ADME, organism-based", "set-up": "dose 5 mg/kg, route oral", "conditions": "in vivo"}, "[3]": {"assay": "Half life in Sprague-Dawley rat at 1 mg/kg, iv", "assay_type": "ADME, organism-based", "conditions": "in vivo"}, "[4]": {"assay": "Protein binding in Sprague-Dawley rat brain", "assay_type": "ADME, tissue-based", "conditions": "read-out: PB (converted)"}, "[5]": {"assay": "Ratio of drug level in brain to plasma of Sprague-Dawley rat at 2.5 mg/kg, ip", "assay_type": "ADME, organism-based", "conditions": "read-out: BPR"}, "[6]": {"assay": "Unbound drug level in brain of CFA induced Sprague-Dawley rat at 20 mg/kg, po after 1 hr", "assay_type": "ADME, organism-based", "conditions": "in vivo"}, "[7]": {"assay": "Unbound drug level in brain of CFA induced Sprague-Dawley rat at 100 mg/kg, po after 1 hr", "assay_type": "ADME, organism-based", "conditions": "in vivo"}, "[8]": {"assay": "Toxicity in CFA induced Sprague-Dawley rat assessed as increase in weight gain at 100 mg/kg, po and measured up to 3 days", "assay_type": "organism-based", "conditions": "in vivo, 72 h"}, "[9]": {"assay": "Toxicity in CFA induced Sprague-Dawley rat assessed as increase in weight gain at 20 mg/kg, po and measured up to 3 days", "assay_type": "organism-based", "conditions": "in vivo, 72 h"}, "[10]": {"test_system": "Rattus norvegicus", "assay": "Antinociceptive activity in CFA induced thermal hypersensitivity Sprague-Dawley rat model assessed as increase in paw withdrawal latency at 4 mg/kg, po after 1 hr", "assay_type": "functional, organism-based"}, "[11]": {"test_system": "Rattus norvegicus", "assay": "Antinociceptive activity in CFA induced thermal hypersensitivity Sprague-Dawley rat model assessed as increase in paw withdrawal latency at 20 mg/kg, po after 1 hr", "assay_type": "functional, organism-based"}, "[12]": {"test_system": "Rattus norvegicus", "assay": "Antinociceptive activity in CFA induced thermal hypersensitivity Sprague-Dawley rat model assessed as increase in paw withdrawal latency at 100 mg/kg, po after 1 hr", "assay_type": "functional, organism-based"}, "[13]": {"biological_target": "Activin receptor type-1 (Homo sapiens) (UniProt Q04771)", "assay": "Inhibition of recombinant human N-terminal GST/His6-tagged ACVR1 C-terminal (A145 to C509) expressed in Sf9 insect cells at 20 nM using phosphatidylserine as substrate incubated for 60 mins in presence of [33P]-ATP by scintillation counting method"}, "[14]": {"biological_target": "Tyrosine-protein kinase BTK (Homo sapiens) (UniProt Q06187)", "sequence (Q06187 whole entry)": "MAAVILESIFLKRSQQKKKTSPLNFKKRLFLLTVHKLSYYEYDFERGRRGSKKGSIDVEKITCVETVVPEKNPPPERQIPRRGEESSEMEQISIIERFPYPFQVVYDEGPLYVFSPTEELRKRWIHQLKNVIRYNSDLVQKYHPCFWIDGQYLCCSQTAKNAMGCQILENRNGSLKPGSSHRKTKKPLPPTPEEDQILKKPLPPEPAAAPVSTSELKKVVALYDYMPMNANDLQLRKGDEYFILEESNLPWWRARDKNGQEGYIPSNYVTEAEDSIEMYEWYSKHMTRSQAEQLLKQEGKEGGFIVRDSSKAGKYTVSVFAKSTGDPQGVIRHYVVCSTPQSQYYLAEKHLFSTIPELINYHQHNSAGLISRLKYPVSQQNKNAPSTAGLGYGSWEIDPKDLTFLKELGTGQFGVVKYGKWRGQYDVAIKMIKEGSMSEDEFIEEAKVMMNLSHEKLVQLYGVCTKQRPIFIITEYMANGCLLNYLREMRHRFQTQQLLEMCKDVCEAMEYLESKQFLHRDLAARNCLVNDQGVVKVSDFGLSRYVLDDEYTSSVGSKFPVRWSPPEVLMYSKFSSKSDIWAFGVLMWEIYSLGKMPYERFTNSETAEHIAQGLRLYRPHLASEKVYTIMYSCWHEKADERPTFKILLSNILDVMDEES", "assay": "Inhibition of recombinant human full length N-terminal GST/His6-tagged BTK (M1 to S659) expressed in Sf9 insect cells at 20 nM using phosphatidylserine as substrate incubated for 60 mins in presence of [33P]-ATP by scintillation counting method"}, "[15]": {"biological_target": "Cyclin-dependent kinase 2/cyclin E1 (Homo sapiens) (UniProt P24864+P24941)", "assay": "Inhibition of CDK2/Cyclin-E1 (unknown origin) at 20 nM using Phosphatidylserine as substrate incubated for 60 mins in presence of [33P]-ATP by scintillation counting method", "assay_type": "protein-complex assay"}, "[16]": {"biological_target": "Serine/threonine-protein kinase Chk2 (Homo sapiens) (UniProt O96017)", "assay": "Inhibition of CHK2 (unknown origin) at 20 nM using phosphatidylserine as substrate incubated for 60 mins in presence of [33P]-ATP by scintillation counting method"}, "[17]": {"biological_target": "Casein kinase I isoform delta (Homo sapiens) (UniProt P48730)", "sequence (P48730 whole entry, looked up, canonical isoform)": "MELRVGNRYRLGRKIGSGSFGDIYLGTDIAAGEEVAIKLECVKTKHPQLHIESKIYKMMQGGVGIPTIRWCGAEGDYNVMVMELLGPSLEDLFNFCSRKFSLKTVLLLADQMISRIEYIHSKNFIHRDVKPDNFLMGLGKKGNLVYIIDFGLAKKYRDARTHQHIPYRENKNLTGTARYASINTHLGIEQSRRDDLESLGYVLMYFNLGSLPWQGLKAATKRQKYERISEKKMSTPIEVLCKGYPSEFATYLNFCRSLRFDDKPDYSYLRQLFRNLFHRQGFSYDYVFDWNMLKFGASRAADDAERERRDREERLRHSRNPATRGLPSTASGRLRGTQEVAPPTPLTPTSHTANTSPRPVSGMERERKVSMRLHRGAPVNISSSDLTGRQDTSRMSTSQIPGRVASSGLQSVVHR", "assay": "Inhibition of CK1-delta (unknown origin) at 20 nM using phosphatidylserine as substrate incubated for 60 mins in presence of [33P]-ATP by scintillation counting method"}, "[18]": {"biological_target": "Mitogen-activated protein kinase 3 (Homo sapiens) (UniProt P27361)", "sequence (P27361 whole entry)": "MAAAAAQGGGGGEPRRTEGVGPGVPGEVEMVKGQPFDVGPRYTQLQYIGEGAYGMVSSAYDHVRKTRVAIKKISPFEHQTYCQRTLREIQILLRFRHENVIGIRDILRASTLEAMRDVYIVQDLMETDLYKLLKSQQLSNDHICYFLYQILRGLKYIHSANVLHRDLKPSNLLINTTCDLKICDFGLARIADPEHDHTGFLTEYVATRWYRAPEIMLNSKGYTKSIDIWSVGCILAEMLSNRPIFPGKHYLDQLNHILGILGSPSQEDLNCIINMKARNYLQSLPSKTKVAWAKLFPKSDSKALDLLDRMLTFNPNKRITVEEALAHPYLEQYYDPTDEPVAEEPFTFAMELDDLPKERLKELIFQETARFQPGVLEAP", "assay": "Inhibition of recombinant human full length N-terminal GST/His6-tagged ERK1 (M1 to P379) expressed in Escherichia coli at 20 nM using phosphatidylserine as substrate incubated for 60 mins in presence of [33P]-ATP by scintillation counting method"}, "[19]": {"biological_target": "Inhibitor of nuclear factor kappa-B kinase subunit beta (Homo sapiens) (UniProt O14920)", "assay": "Inhibition of recombinant human full length N-terminal GST/His6-tagged IKK-beta (M1 to S756) expressed in Sf9 insect cells at 20 nM using phosphatidylserine as substrate incubated for 60 mins in presence of [33P]-ATP by scintillation counting method"}, "[20]": {"biological_target": "Tyrosine-protein kinase JAK1 (Homo sapiens) (UniProt P23458)", "assay": "Inhibition of recombinant human N-terminal GST/His6-tagged JAK1 wt (L583 to K1154) expressed in Sf9 insect cells at 20 nM using phosphatidylserine as substrate incubated for 60 mins in presence of [33P]-ATP by scintillation counting method"}, "[21]": {"biological_target": "Tyrosine-protein kinase Lck (Homo sapiens) (UniProt P06239)", "sequence (P06239 2-509 limits assumed)": "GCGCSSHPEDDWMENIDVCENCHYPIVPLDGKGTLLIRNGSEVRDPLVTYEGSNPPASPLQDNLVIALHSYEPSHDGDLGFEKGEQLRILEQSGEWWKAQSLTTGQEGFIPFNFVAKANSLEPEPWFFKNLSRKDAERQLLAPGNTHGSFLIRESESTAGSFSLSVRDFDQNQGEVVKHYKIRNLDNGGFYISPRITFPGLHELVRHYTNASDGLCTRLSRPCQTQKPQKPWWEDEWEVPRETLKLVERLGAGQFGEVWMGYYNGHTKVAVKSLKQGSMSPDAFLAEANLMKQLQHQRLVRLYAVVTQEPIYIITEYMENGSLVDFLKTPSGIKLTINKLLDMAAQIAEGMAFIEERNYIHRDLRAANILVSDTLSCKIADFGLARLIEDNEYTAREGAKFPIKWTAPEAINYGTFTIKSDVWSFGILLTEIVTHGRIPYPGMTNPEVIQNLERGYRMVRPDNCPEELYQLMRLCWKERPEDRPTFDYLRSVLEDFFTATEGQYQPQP", "assay": "Inhibition of recombinant human full length N-terminal GST/His6-tagged LCK (M1 to P509) expressed in Sf9 insect cells at 20 nM using phosphatidylserine as substrate incubated for 60 mins in presence of [33P]-ATP by scintillation counting method"}, "[22]": {"biological_target": "Serine/threonine-protein kinase MARK1 (Homo sapiens) (UniProt Q9P0L2)", "sequence (Q9P0L2 whole entry, looked up)": "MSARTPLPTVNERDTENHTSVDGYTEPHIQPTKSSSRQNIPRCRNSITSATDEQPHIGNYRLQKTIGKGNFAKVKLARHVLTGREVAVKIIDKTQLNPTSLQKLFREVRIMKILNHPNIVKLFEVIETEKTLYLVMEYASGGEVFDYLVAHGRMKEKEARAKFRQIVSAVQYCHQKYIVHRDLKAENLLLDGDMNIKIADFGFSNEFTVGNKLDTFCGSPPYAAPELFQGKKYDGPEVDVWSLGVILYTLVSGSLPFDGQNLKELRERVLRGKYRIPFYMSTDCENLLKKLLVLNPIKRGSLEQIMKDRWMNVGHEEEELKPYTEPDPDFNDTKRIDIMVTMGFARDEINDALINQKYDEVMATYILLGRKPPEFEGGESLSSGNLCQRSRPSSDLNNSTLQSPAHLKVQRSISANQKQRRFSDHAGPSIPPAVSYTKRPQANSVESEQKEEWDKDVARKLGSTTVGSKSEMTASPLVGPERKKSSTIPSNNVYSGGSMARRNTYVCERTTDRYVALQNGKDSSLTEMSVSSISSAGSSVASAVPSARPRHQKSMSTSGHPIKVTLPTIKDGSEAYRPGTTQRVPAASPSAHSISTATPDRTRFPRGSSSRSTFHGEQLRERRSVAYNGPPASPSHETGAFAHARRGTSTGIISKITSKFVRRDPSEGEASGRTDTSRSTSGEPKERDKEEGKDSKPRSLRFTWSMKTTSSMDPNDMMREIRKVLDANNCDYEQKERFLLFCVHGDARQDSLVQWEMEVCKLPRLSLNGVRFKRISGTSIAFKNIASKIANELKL", "assay": "Inhibition of recombinant human full length N-terminal GST/His6-tagged MARK1 (M1 to L780) expressed in Sf9 insect cells at 20 nM using phosphatidylserine as substrate incubated for 60 mins in presence of [33P]-ATP by scintillation counting method"}, "[23]": {"biological_target": "Serine/threonine-protein kinase PAK 2 (Homo sapiens) (UniProt Q13177)", "sequence (Q13177 whole entry)": "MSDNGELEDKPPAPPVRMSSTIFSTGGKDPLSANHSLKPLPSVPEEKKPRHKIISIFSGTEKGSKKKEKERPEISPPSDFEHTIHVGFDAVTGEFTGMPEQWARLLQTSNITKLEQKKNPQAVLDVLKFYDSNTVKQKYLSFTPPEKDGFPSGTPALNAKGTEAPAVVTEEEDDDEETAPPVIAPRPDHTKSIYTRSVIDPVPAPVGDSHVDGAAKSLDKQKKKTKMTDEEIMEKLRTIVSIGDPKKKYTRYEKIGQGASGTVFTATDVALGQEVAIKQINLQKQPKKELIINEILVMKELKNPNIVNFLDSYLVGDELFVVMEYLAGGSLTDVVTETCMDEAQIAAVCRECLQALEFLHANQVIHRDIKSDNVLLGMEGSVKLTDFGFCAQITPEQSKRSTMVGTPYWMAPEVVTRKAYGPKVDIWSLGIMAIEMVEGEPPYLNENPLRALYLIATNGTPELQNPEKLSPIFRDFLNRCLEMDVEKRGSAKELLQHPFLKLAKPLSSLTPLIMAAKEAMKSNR", "assay": "Inhibition of recombinant human N-terminal GST/His6-tagged PAK2 (D3 to R524) expressed in Sf9 insect cells at 20 nM using phosphatidylserine as substrate incubated for 60 mins in presence of [33P]-ATP by scintillation counting method"}, "[24]": {"biological_target": "Protein kinase C beta type (Homo sapiens) (UniProt P05771)", "sequence (P05771 2-671 limits assumed)": "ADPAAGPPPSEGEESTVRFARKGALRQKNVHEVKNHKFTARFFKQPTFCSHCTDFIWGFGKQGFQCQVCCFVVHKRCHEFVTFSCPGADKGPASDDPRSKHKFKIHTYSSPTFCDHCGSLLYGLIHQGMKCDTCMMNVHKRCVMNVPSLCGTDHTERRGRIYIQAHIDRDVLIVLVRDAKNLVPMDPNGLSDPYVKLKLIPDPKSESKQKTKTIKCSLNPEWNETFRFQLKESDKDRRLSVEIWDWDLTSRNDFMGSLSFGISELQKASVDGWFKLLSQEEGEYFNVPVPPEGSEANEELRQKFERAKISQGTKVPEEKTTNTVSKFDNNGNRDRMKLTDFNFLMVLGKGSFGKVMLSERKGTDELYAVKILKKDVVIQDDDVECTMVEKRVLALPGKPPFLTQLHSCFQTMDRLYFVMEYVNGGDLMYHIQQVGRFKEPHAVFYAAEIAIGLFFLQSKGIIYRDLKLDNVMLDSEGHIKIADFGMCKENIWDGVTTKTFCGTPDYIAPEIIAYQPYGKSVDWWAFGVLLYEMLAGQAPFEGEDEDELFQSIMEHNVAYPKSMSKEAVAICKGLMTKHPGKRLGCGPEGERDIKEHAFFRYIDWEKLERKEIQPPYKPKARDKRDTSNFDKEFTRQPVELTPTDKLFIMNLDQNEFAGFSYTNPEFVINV", "assay": "Inhibition of recombinant human full length N-terminal GST/His6-tagged PKC-beta2 (M1 to S673) expressed in Sf9 insect cells at 20 nM using phosphatidylserine as substrate incubated for 60 mins in presence of [33P]-ATP by scintillation counting method"}, "[25]": {"biological_target": "Protein kinase C theta type (Homo sapiens) (UniProt Q04759)", "assay": "Inhibition of recombinant human full length N-terminal GST and C-terminal His6-tagged PKC-theta (M1 to S706) expressed in Sf9 insect cells at 20 nM using phosphatidylserine as substrate incubated for 60 mins in presence of [33P]-ATP by scintillation counting method"}, "[26]": {"biological_target": "cGMP-dependent protein kinase 1 (Homo sapiens) (UniProt Q13976)", "sequence (Q13976 whole entry)": "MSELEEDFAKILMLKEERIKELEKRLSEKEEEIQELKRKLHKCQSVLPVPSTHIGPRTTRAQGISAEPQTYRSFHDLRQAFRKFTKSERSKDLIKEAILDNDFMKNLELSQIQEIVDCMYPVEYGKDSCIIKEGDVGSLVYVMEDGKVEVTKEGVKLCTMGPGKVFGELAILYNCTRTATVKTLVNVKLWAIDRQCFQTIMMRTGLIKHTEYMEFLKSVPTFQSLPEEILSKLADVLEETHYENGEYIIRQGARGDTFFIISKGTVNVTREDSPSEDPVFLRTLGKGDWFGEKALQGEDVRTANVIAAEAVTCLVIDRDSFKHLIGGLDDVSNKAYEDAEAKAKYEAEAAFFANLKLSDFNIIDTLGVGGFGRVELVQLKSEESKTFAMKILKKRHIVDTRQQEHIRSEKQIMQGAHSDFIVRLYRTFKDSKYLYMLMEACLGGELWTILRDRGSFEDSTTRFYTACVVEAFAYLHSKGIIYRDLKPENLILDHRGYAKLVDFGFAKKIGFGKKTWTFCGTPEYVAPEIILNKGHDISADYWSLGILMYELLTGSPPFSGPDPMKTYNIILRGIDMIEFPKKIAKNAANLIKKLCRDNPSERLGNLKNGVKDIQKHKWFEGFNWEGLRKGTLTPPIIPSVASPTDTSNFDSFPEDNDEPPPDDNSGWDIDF", "assay": "Inhibition of PRKG1 (unknown origin) at 20 nM using cGMP as substrate incubated for 60 mins in presence of [33P]-ATP by scintillation counting method"}, "[27]": {"biological_target": "Ribosomal protein S6 kinase alpha-1 (Homo sapiens) (UniProt Q15418)", "assay": "Inhibition of RPS6KA1 (unknown origin) at 20 nM using phosphatidylserine as substrate incubated for 60 mins in presence of [33P]-ATP by scintillation counting method"}, "[28]": {"biological_target": "Casein kinase II subunit alpha (Homo sapiens) (UniProt P68400)", "sequence (P68400 whole entry, looked up)": "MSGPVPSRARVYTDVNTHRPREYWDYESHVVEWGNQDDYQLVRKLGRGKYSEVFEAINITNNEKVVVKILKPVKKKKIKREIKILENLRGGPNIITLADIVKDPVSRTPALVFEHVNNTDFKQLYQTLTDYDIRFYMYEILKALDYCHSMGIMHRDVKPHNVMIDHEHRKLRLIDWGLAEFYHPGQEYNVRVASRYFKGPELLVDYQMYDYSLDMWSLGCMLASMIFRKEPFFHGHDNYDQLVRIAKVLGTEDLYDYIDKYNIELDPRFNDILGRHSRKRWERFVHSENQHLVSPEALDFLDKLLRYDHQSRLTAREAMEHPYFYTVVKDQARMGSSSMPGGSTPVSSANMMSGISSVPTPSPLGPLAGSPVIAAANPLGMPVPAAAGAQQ", "assay": "Inhibition of recombinant human full length N-terminal GST and C-terminal His6-tagged CK2-alpha (M1 to Q391) expressed in Sf9 insect cells at 20 nM using phosphatidylserine as substrate incubated for 60 mins in presence of [33P]-ATP by scintillation counting method"}, "[29]": {"assay": "Solubility of test compound", "assay_type": "physicochemical"}}, "note": "Active and inactive are the calls of the source. The calls are words filed in the database; no cut-off is given here."}
{"smiles": "Cn1cc(-c2n[nH]c3ccc(NCc4cc(F)ccc4S(C)(=O)=O)cc23)cn1", "values": [{"measurement": "Papp A→B at 0.5 h, 50 µM", "setting": "[1]", "value": 15.2, "unit": "×10⁻⁶ cm/s"}, {"measurement": "Cmax", "setting": "[2]", "value": 161, "unit": "nM"}, {"measurement": "half-life", "setting": "[3]", "value": 1.46, "unit": "h"}, {"measurement": "fraction unbound", "setting": "[4]", "value": 0.038}, {"measurement": "Kp", "setting": "[5]", "value": 0.03}, {"measurement": "Drug uptake(free)", "setting": "[6]", "value": 1.5, "unit": "nM"}, {"measurement": "Drug uptake(free)", "setting": "[7]", "value": 3.5, "unit": "nM"}, {"measurement": "Activity", "setting": "[8]", "value": "Toxic"}, {"measurement": "Activity", "setting": "[9]", "value": "Non-Toxic"}, {"measurement": "Activity", "setting": "[10]", "value": "Active"}, {"measurement": "Activity", "setting": "[11]", "value": "Active"}, {"measurement": "Activity", "setting": "[12]", "value": "Active"}, {"measurement": "inhibition", "setting": "[13]", "value": -2, "unit": "%"}, {"measurement": "inhibition", "setting": "[14]", "value": -6, "unit": "%"}, {"measurement": "inhibition", "setting": "[15]", "value": 5, "unit": "%"}, {"measurement": "inhibition", "setting": "[16]", "value": -1, "unit": "%"}, {"measurement": "inhibition", "setting": "[17]", "value": 5, "unit": "%"}, {"measurement": "inhibition", "setting": "[18]", "value": -9, "unit": "%"}, {"measurement": "inhibition", "setting": "[19]", "value": -7, "unit": "%"}, {"measurement": "inhibition", "setting": "[20]", "value": -5, "unit": "%"}, {"measurement": "inhibition", "setting": "[21]", "value": -6, "unit": "%"}, {"measurement": "inhibition", "setting": "[22]", "value": -8, "unit": "%"}, {"measurement": "inhibition", "setting": "[23]", "value": 12, "unit": "%"}, {"measurement": "inhibition", "setting": "[24]", "value": 5, "unit": "%"}, {"measurement": "inhibition", "setting": "[25]", "value": -2, "unit": "%"}, {"measurement": "inhibition", "setting": "[26]", "value": -5, "unit": "%"}, {"measurement": "inhibition", "setting": "[27]", "value": 7, "unit": "%"}, {"measurement": "inhibition", "setting": "[28]", "value": 7, "unit": "%"}, {"measurement": "solubility", "setting": "[29]", "value": 141, "unit": "µM"}]}
